Measurements: PubChem BioAssay (NCI)
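Assay format: 96-well plates, 48-hour exposure. GI50 = concentration required for 50% inhibition of growth. TGI is the concentration that stops growth completely.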

Tests used:
Assay in all cases: NCI tumour cell line growth inhibition, 48 h
786-0 renal = system: 786-0 renal
A498 renal = system: A498 renal
A549 NSCLC = system: A549 NSCLC
ACHN renal = system: ACHN renal
CAKI-1 renal = system: CAKI-1 renal
CCRF-CEM leukemia = system: CCRF-CEM leukemia
COLO 205 colon = system: COLO 205 colon
DLD-1 colon = system: DLD-1 colon
DMS 114 small cell lung = system: DMS 114 small cell lung
DMS 273 small cell lung = system: DMS 273 small cell lung
HCC-2998 colon = system: HCC-2998 colon
HCT-116 colon = system: HCT-116 colon
HCT-15 colon = system: HCT-15 colon
HL-60(TB) leukemia = system: HL-60(TB) leukemia
HOP-18 NSCLC = system: HOP-18 NSCLC
HOP-62 NSCLC = system: HOP-62 NSCLC
HOP-92 NSCLC = system: HOP-92 NSCLC
HT29 colon = system: HT29 colon
IGROV1 ovarian = system: IGROV1 ovarian
K-562 leukemia = system: K-562 leukemia
KM20L2 colon = system: KM20L2 colon
LOX IMVI melanoma = system: LOX IMVI melanoma
LXFL 529 NSCLC = system: LXFL 529 NSCLC
M14 melanoma = system: M14 melanoma
M19-MEL melanoma = system: M19-MEL melanoma
MALME-3M melanoma = system: MALME-3M melanoma
MOLT-4 leukemia = system: MOLT-4 leukemia
NCI-H226 lung = system: NCI-H226 lung
NCI-H23 lung = system: NCI-H23 lung
NCI-H460 lung = system: NCI-H460 lung
OVCAR-3 ovarian = system: OVCAR-3 ovarian
OVCAR-4 ovarian = system: OVCAR-4 ovarian
OVCAR-5 ovarian = system: OVCAR-5 ovarian
OVCAR-8 ovarian = system: OVCAR-8 ovarian
RPMI-8226 leukemia = system: RPMI-8226 leukemia
SF-268 CNS = system: SF-268 CNS
SF-295 CNS = system: SF-295 CNS
SK-MEL-28 melanoma = system: SK-MEL-28 melanoma
SK-MEL-5 melanoma = system: SK-MEL-5 melanoma
SK-OV-3 ovarian = system: SK-OV-3 ovarian
SN12C renal = system: SN12C renal
SNB-19 CNS = system: SNB-19 CNS
SR leukemia = system: SR leukemia
SW-620 colon = system: SW-620 colon
TK-10 renal = system: TK-10 renal
U251 CNS = system: U251 CNS
UACC-257 melanoma = system: UACC-257 melanoma
UACC-62 melanoma = system: UACC-62 melanoma
UO-31 renal = system: UO-31 renal
NCI-H522 lung = system: NCI-H522 lung
SF-539 CNS = system: SF-539 CNS
SK-MEL-2 melanoma = system: SK-MEL-2 melanoma
SNB-75 CNS = system: SNB-75 CNS
SNB-78 CNS = system: SNB-78 CNS
XF 498 CNS = system: XF 498 CNS

With `O=C(O)C12C=CC(C1)c1ccccc12` (centres undefined) the TGI (786-0 renal) was > 100 µM, the TGI (A498 renal) was > 100 µM and the TGI (A549 NSCLC) was > 100 µM. The TGI (ACHN renal) was > 100 µM, the TGI (CAKI-1 renal) was > 100 µM and the TGI (CCRF-CEM leukemia) was > 100 µM. For the same compound, the TGI (COLO 205 colon) was > 100 µM, the TGI (DLD-1 colon) was > 100 µM and the TGI (DMS 114 small cell lung) was > 100 µM. For the same compound, the TGI (DMS 273 small cell lung) was > 100 µM, the TGI (HCC-2998 colon) was > 100 µM and the TGI (HCT-116 colon) was > 100 µM. The TGI (HCT-15 colon) was > 100 µM, the TGI (HL-60(TB) leukemia) was > 100 µM and the TGI (HOP-18 NSCLC) was > 100 µM. For the same compound, the TGI (HOP-62 NSCLC) was > 100 µM, the TGI (HOP-92 NSCLC) was > 100 µM and the TGI (HT29 colon) was > 100 µM. The TGI (IGROV1 ovarian) was > 100 µM, the TGI (K-562 leukemia) was > 100 µM and the TGI (KM20L2 colon) was > 100 µM. The TGI (LOX IMVI melanoma) was > 100 µM, the TGI (LXFL 529 NSCLC) was > 100 µM and the TGI (M14 melanoma) was > 100 µM. For the same compound, the TGI (M19-MEL melanoma) was > 100 µM, the TGI (MALME-3M melanoma) was > 100 µM and the TGI (MOLT-4 leukemia) was > 100 µM. The TGI (NCI-H226 lung) was > 100 µM, the TGI (NCI-H23 lung) was > 100 µM and the TGI (NCI-H460 lung) was > 100 µM. The TGI (OVCAR-3 ovarian) was > 100 µM, the TGI (OVCAR-4 ovarian) was > 100 µM and the TGI (OVCAR-5 ovarian) was > 100 µM. The TGI (OVCAR-8 ovarian) was > 100 µM, the TGI (RPMI-8226 leukemia) was > 100 µM and the TGI (SF-268 CNS) was > 100 µM. For the same compound, the TGI (SF-295 CNS) was > 100 µM, the TGI (SK-MEL-28 melanoma) was > 100 µM and the TGI (SK-MEL-5 melanoma) was > 100 µM. The TGI (SK-OV-3 ovarian) was > 100 µM, the TGI (SN12C renal) was > 100 µM and the TGI (SNB-19 CNS) was > 100 µM. The TGI (SR leukemia) was > 100 µM, the TGI (SW-620 colon) was > 100 µM and the TGI (TK-10 renal) was > 100 µM. For the same compound, the TGI (U251 CNS) was > 100 µM, the TGI (UACC-257 melanoma) was > 100 µM and the TGI (UACC-62 melanoma) was > 100 µM. The TGI (UO-31 renal) was > 100 µM.
For `CCNC1CC(n2cc(C)c(=O)[nH]c2=O)OC1CO` (centres undefined), the TGI (786-0 renal) was > 100 µM, the TGI (A498 renal) was > 100 µM and the TGI (CAKI-1 renal) was > 100 µM. The TGI (CCRF-CEM leukemia) was > 100 µM, the TGI (COLO 205 colon) was > 100 µM and the TGI (DLD-1 colon) was > 100 µM. For the same compound, the TGI (DMS 114 small cell lung) was > 100 µM, the TGI (DMS 273 small cell lung) was > 100 µM and the TGI (HCC-2998 colon) was > 100 µM. The TGI (HCT-116 colon) was > 100 µM, the TGI (HL-60(TB) leukemia) was > 100 µM and the TGI (HOP-62 NSCLC) was > 100 µM. For the same compound, the TGI (HOP-92 NSCLC) was > 100 µM, the TGI (IGROV1 ovarian) was > 100 µM and the TGI (K-562 leukemia) was > 100 µM. The TGI (LXFL 529 NSCLC) was > 100 µM, the TGI (M14 melanoma) was > 100 µM and the TGI (M19-MEL melanoma) was > 100 µM. For the same compound, the TGI (MALME-3M melanoma) was > 100 µM, the TGI (MOLT-4 leukemia) was > 100 µM and the TGI (NCI-H226 lung) was > 100 µM. For the same compound, the TGI (NCI-H23 lung) was > 100 µM, the TGI (NCI-H460 lung) was > 100 µM and the TGI (NCI-H522 lung) was > 100 µM. For the same compound, the TGI (OVCAR-4 ovarian) was > 100 µM, the TGI (RPMI-8226 leukemia) was > 100 µM and the TGI (SF-268 CNS) was > 100 µM. The TGI (SF-539 CNS) was > 100 µM, the TGI (SK-MEL-2 melanoma) was > 100 µM and the TGI (SK-MEL-28 melanoma) was > 100 µM. The TGI (SK-OV-3 ovarian) was > 100 µM, the TGI (SN12C renal) was > 100 µM and the TGI (SNB-75 CNS) was > 100 µM. The TGI (SNB-78 CNS) was > 100 µM, the TGI (SR leukemia) was > 100 µM and the TGI (UACC-62 melanoma) was > 100 µM. For the same compound, the TGI (UO-31 renal) was > 100 µM and the TGI (XF 498 CNS) was > 100 µM.
For `O=C([O-])C([O-])C([O-])C(=O)[O-].[Co+3].c1ccc(-c2ccnc3c2ccc2c(-c4ccccc4)ccnc23)cc1.c1ccc(-c2ccnc3c2ccc2c(-c4ccccc4)ccnc23)cc1.c1ccc(-c2ccnc3c2ccc2c(-c4ccccc4)ccnc23)cc1`, the GI50 (CAKI-1 renal) was 0.0339 µM, the TGI (CAKI-1 renal) was 0.235 µM and the TGI (DLD-1 colon) was 1.6 µM. It also gave a TGI (KM20L2 colon) of 0.291 µM, a TGI (NCI-H226 lung) of 0.27 µM and a TGI (NCI-H522 lung) of 0.128 µM. The TGI (OVCAR-5 ovarian) was 1.65 µM, the TGI (SK-MEL-28 melanoma) was 1.96 µM and the TGI (SNB-75 CNS) was > 100 µM. For the same compound, the TGI (SR leukemia) was 0.207 µM, the TGI (UACC-62 melanoma) was 0.407 µM and the TGI (UO-31 renal) was 0.0823 µM.
